Data from the NIST ThermoML archive (doi:10.1021/je301103d).
Numbers after ± are expanded uncertainties.

Legend:
[1] = 101.33 kPa, Liquid; for viscosity: Cone and plate viscometry; for mass density: Vibrating tube method; for electrical conductivity: conductivity meter (DDJS-308A)
[2] = refractive index (Na D-line) (dimensionless); conditions: 101.33 kPa, Liquid, Standard Abbe refractometry

C[C@H](N)C(=O)[O-].C[N+](C)(C)CCO [2-hydroxy-N,N,N-trimethylethanaminium L-alaninate]
Conditions | electrical conductivity, [1] [S/m] | mass density, [1] [kg/m3] | refractive index, [2] | viscosity, [1] [mPa·s]
293.15 K | – | – | 1.5146 ± 0.0011 | –
298.15 K | 0.00213 ± 7e-05 | 1112.94 ± 2 | 1.514 ± 0.0011 | 385.6 ± 45
303.15 K | 0.00577 ± 0.00018 | 1110.07 ± 2 | 1.5127 ± 0.0011 | 234.9 ± 27
308.15 K | 0.00907 ± 0.00027 | 1107.01 ± 2 | 1.5118 ± 0.0011 | 136.8 ± 15
313.15 K | 0.0126 ± 0.00038 | 1104.04 ± 2 | 1.5105 ± 0.0011 | 89 ± 9.9
318.15 K | 0.017 ± 0.00051 | 1101.21 ± 2 | 1.5094 ± 0.0011 | 51.8 ± 5.7
323.15 K | 0.0249 ± 0.00075 | 1098.37 ± 2 | 1.5084 ± 0.0011 | 31.5 ± 3.5
328.15 K | 0.0309 ± 0.00093 | 1095.54 ± 2 | 1.5072 ± 0.0011 | 21.5 ± 2.4
333.15 K | 0.0397 ± 0.0012 | 1092.69 ± 2 | 1.506 ± 0.0011 | 14 ± 1.5
338.15 K | 0.0518 ± 0.0016 | 1089.85 ± 2 | 1.5052 ± 0.0011 | 10 ± 1.1
343.15 K | 0.0655 ± 0.002 | 1087.04 ± 2 | 1.5041 ± 0.0011 | 7.4 ± 0.8
348.15 K | 0.0822 ± 0.0025 | 1084.27 ± 2 | – | 5.7 ± 0.6
353.15 K | 0.101 ± 0.003 | 1081.51 ± 2 | – | 4.4 ± 0.5

C[N+](C)(C)CCO.O=C([O-])[C@@H]1CCCN1 [2-hydroxy-N,N,N-trimethylethanaminium L-prolinate]
Conditions | electrical conductivity, [1] [S/m] | mass density, [1] [kg/m3] | refractive index, [2] | viscosity, [1] [mPa·s]
293.15 K | – | – | 1.5419 ± 0.0011 | –
298.15 K | 3e-05 ± 1e-05 | 1121.04 ± 2 | 1.5408 ± 0.0011 | 10644 ± 1600
303.15 K | 0.00013 ± 1e-05 | 1118.21 ± 2 | 1.5402 ± 0.0011 | 5437.3 ± 770
308.15 K | 0.00035 ± 1e-05 | 1115.35 ± 2 | 1.539 ± 0.0011 | 2824.6 ± 380
313.15 K | 0.0007 ± 2e-05 | 1112.49 ± 2 | 1.5379 ± 0.0011 | 1515.3 ± 190
318.15 K | 0.0013 ± 4e-05 | 1109.61 ± 2 | 1.5367 ± 0.0011 | 839.1 ± 100
323.15 K | 0.00204 ± 6e-05 | 1106.69 ± 2 | 1.5355 ± 0.0011 | 463.5 ± 55
328.15 K | 0.00291 ± 9e-05 | – | 1.5344 ± 0.0011 | 307 ± 36
333.15 K | 0.00435 ± 0.00013 | 1100.61 ± 2 | 1.5329 ± 0.0011 | 163.7 ± 18
338.15 K | 0.00552 ± 0.00017 | 1097.81 ± 2 | 1.5317 ± 0.0011 | 114 ± 13
343.15 K | 0.00649 ± 0.00019 | 1095.03 ± 2 | 1.5306 ± 0.0011 | 70.1 ± 7.8
348.15 K | 0.00779 ± 0.00023 | 1092.12 ± 2 | – | 46.3 ± 5.1
353.15 K | 0.00941 ± 0.00028 | 1089.39 ± 2 | – | 33.7 ± 3.7

C[N+](C)(C)CCO.N[C@@H](CO)C(=O)[O-] [2-hydroxy-N,N,N-trimethylethanaminium L-serinate]
Conditions | electrical conductivity, [1] [S/m] | mass density, [1] [kg/m3] | refractive index, [2] | viscosity, [1] [mPa·s]
293.15 K | – | – | 1.5447 ± 0.0011 | –
298.15 K | 0.00093 ± 3e-05 | 1191.51 ± 2 | 1.5429 ± 0.0011 | 11544 ± 1700
303.15 K | 0.00145 ± 4e-05 | 1188.65 ± 2 | 1.5416 ± 0.0011 | 6543.1 ± 930
308.15 K | 0.00229 ± 7e-05 | 1185.79 ± 2 | 1.5408 ± 0.0011 | 3793.3 ± 520
313.15 K | 0.00359 ± 0.00011 | 1182.9 ± 2 | 1.5397 ± 0.0011 | 2186.5 ± 290
318.15 K | 0.00553 ± 0.00017 | 1179.92 ± 2 | 1.5388 ± 0.0011 | 1306 ± 160
323.15 K | 0.00833 ± 0.00025 | 1176.87 ± 2 | 1.5382 ± 0.0011 | 811.5 ± 99
328.15 K | 0.0122 ± 0.00037 | 1173.97 ± 2 | 1.5366 ± 0.0011 | 522.9 ± 62
333.15 K | 0.0175 ± 0.00053 | 1171.2 ± 2 | 1.5349 ± 0.0011 | 346.6 ± 40
338.15 K | 0.0266 ± 0.0008 | 1168.38 ± 2 | 1.5341 ± 0.0011 | 237.7 ± 27
343.15 K | 0.037 ± 0.0011 | 1165.5 ± 2 | 1.5326 ± 0.0011 | 167.5 ± 19
348.15 K | 0.0495 ± 0.0015 | 1162.54 ± 2 | – | 120.1 ± 13
353.15 K | 0.0688 ± 0.0021 | 1159.37 ± 2 | – | 90.2 ± 10

C[N+](C)(C)CCO.NCC(=O)[O-] [2-hydroxy-N,N,N-trimethylethanaminium glycinate]
Conditions | electrical conductivity, [1] [S/m] | mass density, [1] [kg/m3] | refractive index, [2] | viscosity, [1] [mPa·s]
293.15 K | – | – | 1.5238 ± 0.0011 | –
298.15 K | 0.00677 ± 0.00021 | 1145.2 ± 2 | 1.5224 ± 0.0011 | 182.3 ± 21
303.15 K | 0.0104 ± 0.00031 | 1142.31 ± 2 | 1.5213 ± 0.0011 | 119.9 ± 13
308.15 K | 0.0147 ± 0.00044 | 1139.43 ± 2 | 1.5204 ± 0.0011 | 84.3 ± 9.3
313.15 K | 0.022 ± 0.00066 | 1136.7 ± 2 | 1.5194 ± 0.0011 | 50.2 ± 5.6
318.15 K | 0.0292 ± 0.00088 | 1133.97 ± 2 | 1.5182 ± 0.0011 | 29.4 ± 3.3
323.15 K | 0.0388 ± 0.0012 | 1131.22 ± 2 | 1.5171 ± 0.0011 | 19.9 ± 2.2
328.15 K | 0.0497 ± 0.0015 | 1128.46 ± 2 | 1.5158 ± 0.0011 | 14.3 ± 1.6
333.15 K | 0.0609 ± 0.0018 | 1125.7 ± 2 | 1.5148 ± 0.0011 | 10.4 ± 1.1
338.15 K | 0.0781 ± 0.0024 | 1122.93 ± 2 | 1.5137 ± 0.0011 | 7.2 ± 0.8
343.15 K | 0.0993 ± 0.003 | 1120.22 ± 2 | 1.5125 ± 0.0011 | 5.5 ± 0.6
348.15 K | 0.122 ± 0.0037 | 1117.53 ± 2 | – | 4.3 ± 0.5
353.15 K | 0.15 ± 0.0045 | 1114.83 ± 2 | – | 3.5 ± 0.4

C[N+](C)(C)CCO.NCCC(=O)[O-] [2-hydroxy-N,N,N-trimethylethanaminium β-alaninate]
Conditions | electrical conductivity, [1] [S/m] | mass density, [1] [kg/m3] | refractive index, [2] | viscosity, [1] [mPa·s]
293.15 K | – | – | 1.5322 ± 0.0011 | –
298.15 K | 0.00071 ± 2e-05 | 1120.29 ± 2 | 1.5313 ± 0.0011 | 5092.1 ± 710
303.15 K | 0.00143 ± 4e-05 | 1117.51 ± 2 | 1.5306 ± 0.0011 | 3022.2 ± 400
308.15 K | 0.00268 ± 8e-05 | 1114.55 ± 2 | 1.5294 ± 0.0011 | 1820.4 ± 230
313.15 K | 0.00494 ± 0.00015 | 1111.77 ± 2 | 1.5285 ± 0.0011 | 1146.2 ± 140
318.15 K | 0.00907 ± 0.00027 | 1108.98 ± 2 | 1.5277 ± 0.0011 | 723.2 ± 88
323.15 K | 0.0134 ± 0.0004 | 1106.2 ± 2 | 1.5266 ± 0.0011 | 470.7 ± 56
328.15 K | 0.0178 ± 0.00053 | 1103.43 ± 2 | 1.526 ± 0.0011 | 322.4 ± 37
333.15 K | 0.0227 ± 0.00068 | 1100.63 ± 2 | 1.5249 ± 0.0011 | 220.7 ± 25
338.15 K | 0.0295 ± 0.00089 | 1097.83 ± 2 | 1.5238 ± 0.0011 | 155.9 ± 18
343.15 K | 0.0379 ± 0.0011 | 1095.04 ± 2 | 1.5225 ± 0.0011 | 112 ± 12
348.15 K | 0.0496 ± 0.0015 | 1092.32 ± 2 | – | 79.3 ± 8.8
353.15 K | 0.0615 ± 0.0019 | 1089.6 ± 2 | – | 56.7 ± 6.3
